Test results taken from patent publication US11634381B2, “RUNX2 transcription factor inhibitors and uses thereof” (University of Maryland, Baltimore, priority 2015, dated 2023).
Where a SMILES comes first, the peptide text is derived from it. The star is where a group is joined. Cbz = O=C(OCc1ccccc1)*

B1: recombinant soluble E-Cadherin: recombinant soluble E-Cadherin (rsE-Cad) (protein, UniProt P12830 155-709, looked up)
extracellular domain: DWVIPPISCPENEKGPFPKNLVQIKSNKDKEGKVFYSITGQGADTPPVGVFIIERETGWLKVTEPLDRERIATYTLFSHAVSSNGNAVEDPMEILITVTDQNDNKPEFTQEVFKGSVMEGALPGTSVMEVTATDADDDVNTYNAAIAYTILSQDPELPDKNMFTINRNTGVISVVTTGLDRESFPTYTLVVQAADLQGEGLSTTATAVITVTDTNDNPPIFNPTTYKGQVPENEANVVITTLKVTDADAPNTPAWEAVYTILNDDGGQFVVTTNPVNNDGILKTAKGLDFEAKQQYILHVAVTNVVPFEVSLTTSTATVTVDVLDVNEAPIFVPPEKRVEVSEDFGVGQEITSYTAQEPDTFMEQKITYRIWRDTANWLEINPDTGAISTRAELDREDFEHVKNSTYTALIIATDNGSPVATGTGTLLLILSDVNDNAPIPEPRTIFFCERNPKPQVINIIDADLPPNTSPFTAELTHGASANWTIQYNDPTQESIILKPKMALEVGDYKINLKLMDNQNKDQVTTLEVSVCDCEGAAGVCRKAQPVEAGLQIPA
modifications: extracellular domain

Key:
TAZ = assay: siRNA mediated knockdown of TAZ (Western blot); assay type: cell-based, human; conditions: MCF7 Tet.OFF cells, low or high RUNX2
Procedure: TAZ knockdown was performed in MCF7 Tet.OFF cells using Custom 23 mer desalted siRNA oligonucleotides from Sigma and a Universal Scrambled Negative Control siRNA Duplex from Origene (Catalog No. SR30004): TAZ siRNA #1: 5′-GACA […]-3′ (SEQ ID NO: 1), TAZ siRNA #2: 5′-[…] GAACAUU-3′ (SEQ ID NO: 2) and TAZ siRNA #3: 5′-[…]-3′ (SEQ ID NO: 3). Briefly, MCF7 Tet.OFF cells were grown in the absence or presence of doxycycline for 3 days and then transfected with corresponding siRNA's using Lipofectamine-2000 (Life Technologies). RIPA extracts were obtained 48 hr post transfection and total protein was analyzed by Western blot (see above) and probed for TAZ protein expression. Protein levels were normalized to actin and quantified using NIH Image-J software.

MCF7 RUNX2 Tet.OFF cells = assay: Suspension culture tumorsphere formation; assay type: cell-based, human; conditions: TAZ siRNA, TGFβ, 12 days
Procedure: MCF7 Tet.OFF cells were grown in the presence (+Dox, RUNX2 negative) or absence (−Dox, RUNX2 positive) of doxycycline for 3 days. Cells were then scraped and counted. 60,000 cells were plated in each well of a 6-well ultra-low attachment plate (Corning; 3471) in Promocell Basal Medium (Promocell; c-22211) complete with Supplement Mix (Promocell; c-39216). Cells were then treated with or without 2 ng/mL TGFβ (R&D Systems; 240-B-002). After growth for 10-15 days, wells were photographed and tumorsphere diameters were measured from photographic images (mm). Colony diameters were calculated using the formula: (L+W)/2. Representative photographs were obtained at 4× magnification. […] For TAZ siRNA knockdown experiments, TAZ siRNA was transfected (as below) into MCF7 Tet.OFF cells and 24 hr later cells were scraped and placed into suspension as described above. Small-Interfering RNA (siRNA) pool targeting RUNX1, RUNX2, and non-targeting control were purchased from Dharmacon, and transfected into cells using RNAiMAX Reagent (Invitrogen). Western blot analysis was performed 48 hrs after transfection.

RUNX2 = RUNX2 (Homo sapiens, UniProt Q13950); assay: Western blot of RUNX2, RUNX1, CBF-β; assay type: cell-based; set-up: endogenous in cells; host or cells: MDA-231, MDA-468; conditions: MDA-468 and MCF7 cells, MG132 10 μM alone, 18 hrs
RUNX2, sequence (Q13950 whole entry): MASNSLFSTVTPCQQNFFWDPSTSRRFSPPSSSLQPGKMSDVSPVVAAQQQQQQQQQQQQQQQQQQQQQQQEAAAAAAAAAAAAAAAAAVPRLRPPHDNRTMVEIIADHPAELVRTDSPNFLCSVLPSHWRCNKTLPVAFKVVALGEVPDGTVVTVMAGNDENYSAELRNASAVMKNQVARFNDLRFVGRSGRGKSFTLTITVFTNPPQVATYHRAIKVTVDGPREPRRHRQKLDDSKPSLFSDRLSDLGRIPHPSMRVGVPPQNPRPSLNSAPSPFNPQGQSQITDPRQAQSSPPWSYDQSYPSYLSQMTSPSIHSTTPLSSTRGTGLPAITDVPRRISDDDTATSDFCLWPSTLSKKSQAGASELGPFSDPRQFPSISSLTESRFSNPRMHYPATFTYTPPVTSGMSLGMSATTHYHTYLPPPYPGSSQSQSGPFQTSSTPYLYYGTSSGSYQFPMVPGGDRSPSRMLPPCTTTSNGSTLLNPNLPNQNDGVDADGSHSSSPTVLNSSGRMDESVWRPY
Procedure: Whole cell lysates extracted in RIPA buffer (Upstate) were separated on 4-12% gradient SDS-PAGE and transferred to nitrocellulose membrane. The blots were incubated with specific antibodies for each protein overnight at 4° C. After antibody washing, the blots were reacted with their respective secondary antibody and detected with enhanced chemiluminescence reagents (Millipore) according to the supplier's protocol. Antibodies for proteins were purchased as below. RUNX1, RUNX2, CBF-β, ubiquitin and caspase-3 (Cell Signaling Technologies), S451-p-RUNX2 (Bioss Gentaur, Belgium), RUNX3 and Glut-1 (Millipore, Calif.), β-actin and RUNX2 antibody for IHC (Sigma-Aldrich), and Ki-67 for IHC (Bethyl Laboratories, Inc, TX).

Lats1/2 = Lats1/2 phosphorylation (Hippo signaling); assay type: cell-based, human; conditions: HCC1428 cells, rsE-Cad 24 hr
Procedure: In FIG. 22A HCC1428 luminal BC cells that express E-Cadherin were treated with recombinant soluble E-Cadherin (rsE-Cad) for 24 hr and total cell extracts were analyzed for phosphorylation of the Lats1/2 tumor suppressors. Phospho.Lats1/2 and total Lats1/2 levels declined with rsE-Cad treatment consistent with TAZ translocation to the nucleus, where it acts as an oncogene with RUNX2. […] MCF7 cells expressing RUNX2 (Tet.OFF) were treated with compound 1 drug for 24 hours and total cell extracts were analyzed for phosphp.Lats1/2, total Lats1/2, and RUNX2 expression.

| Molecule | TAZ knockdown to levels of control (scrambled siRNA) (TAZ) | tumorsphere size (MCF7 RUNX2 Tet.OFF cells; RUNX2 negative cells) | tumorsphere size (MCF7 RUNX2 Tet.OFF cells; RUNX2 positive cells) [mm] | RUNX2 protein stability (RUNX2) | phosphorylation of the Lats1/2 tumor suppressors (Lats1/2) |
| --- | --- | --- | --- | --- | --- |
| 5′-GGACAAACACCCAU GAACAUU-3′ (GGACAAACACCCAUGAACAUU; listed as RNA, chemistry not given here) [TAZ siRNA #2] | 50-70% | 5.16±1.91 mm | 5.35±2.42 |  |  |
| CC(C)C[C@@H](C=O)NC(=O)[C@H](CC(C)C)NC(=O)[C@H](CC(C)C)NC(=O)OCc1ccccc1 [MG132, reference compound] (Cbz-Leu-Leu-Leu-aldehyde) |  |  |  | increased |  |
| 5′-AAGCCUAGCUCGUGGCGGAUU-3′ (listed as RNA, chemistry not given here) [TAZ siRNA #3] | 30% | no significant effect | 6.05±3.12 |  |  |
| 5′-GACA UGAGAUCCAUCACUAUU-3′ (GACAUGAGAUCCAUCACUAUU; listed as RNA, chemistry not given here) [TAZ siRNA #1] | 70-80% | 4.85±2.11 mm | 4.43±1.47 |  |  |
| B1 |  |  |  |  | decline in phosphorylation |
